{"source": "patent US20250042879A1", "about": "“HETEROCYCLIC SUBSTITUTED 1,3,4-THIADIAZOLE AND PYRIDAZINE COMPOUNDS AND METHODS OF USING THE SAME” (Rgenta Therapeutics, Inc., priority 2021, published 2025)"}
{"tested_on": "HTT", "test": "Mini-gene reporter assay-HTT (firefly luciferase, exon inclusion)", "format": "cell-based", "conditions": "HTT Minigene, 5 μM; read-out: % Efficacy at 5 μM", "source_text": "Mini-gene reporter constructs for each target site were constructed by first PCR amplifying the region-of-interest including the sequence of the alternatively skipped, sequences of the immediate upstream and downstream introns, and sequences of the immediate upstream and downstream exons. Then the 3′end of the amplified sequence was ligated to a firefly luciferase reporter gene and cloned into the pcDNA3.1 vector backbone. The final reporter construct was transiently transfected into HEK293 cells using Lipofectamine 3000 transfection reagents. Compounds that can induce the inclusion of the skipped exon in the reporter construct would increase the reporter firefly luciferase activity.\nTest compounds were diluted in duplicates and dispensed into an assay plate. Transient mini-gene reporter cell line stock was resuspended and dispensed into the assay plate. Assay plates were then centrifuged and incubated. A luciferase reagent (e.g. ONE-Glo firefly luciferase reagent from Promega®) was added to the assay plate and the luminescence (RLU) signals recorded. EC50 values were determined by curve fitting in Levenberg-Marquardt algorithm.", "units": {"Emax at 5 µM": "%"}}
{"smiles": "COC1CC(N2CC(c3ccc(-c4ccc(-c5cc(F)c6nc(C)cn6c5)cc4O)nn3)C2)C1", "note": "(stereo not drawn) [Compound 103]", "Emax at 5 µM": "25 to 75"}
{"smiles": "COCC(C)CN1CC(c2ccc(-c3ccc(-c4cc(F)c5nc(C)cn5c4)cc3O)nn2)C1", "note": "(stereo not drawn) [Compound 104]", "Emax at 5 µM": "25 to 75"}
{"smiles": "Cc1cn2cc(-c3ccc(-c4ccc(C5CN(CC6CC6C)C5)nn4)c(O)c3)cc(F)c2n1", "note": "(stereo not drawn) [Compound 105]", "Emax at 5 µM": "> 750"}
{"smiles": "Cc1cn2cc(-c3ccc(-c4ccc(C5CN(C(C)Cc6cnn(C)c6)C5)nn4)c(O)c3)cc(F)c2n1", "note": "(stereo not drawn) [Compound 106]", "Emax at 5 µM": "> 750"}
{"smiles": "Cc1cn2cc(-c3ccc(-c4ccc(C5CN(C(C)CCn6cccn6)C5)nn4)c(O)c3)cc(F)c2n1", "note": "(stereo not drawn) [Compound 107]", "Emax at 5 µM": "25 to 75"}
{"smiles": "Cc1cn2cc(-c3ccc(-c4ccc(C5CN(CC6(F)CC6)C5)nn4)c(O)c3)cc(F)c2n1", "note": "[Compound 108]", "Emax at 5 µM": "> 750"}
{"smiles": "Cc1cn2cc(-c3ccc(-c4ccc(C5CN(CC6CCSCC6)C5)nn4)c(O)c3)cc(F)c2n1", "note": "[Compound 109]", "Emax at 5 µM": "> 750"}
{"smiles": "Cc1cn2cc(-c3ccc(-c4ccc(C5CN(CC6(C)COC6)C5)nn4)c(O)c3)cc(F)c2n1", "note": "[Compound 110]", "Emax at 5 µM": "25 to 75"}
{"smiles": "Cc1cn2cc(-c3ccc(-c4ccc(C5CN(CC6CCSC6)C5)nn4)c(O)c3)cc(F)c2n1", "note": "(stereo not drawn) [Compound 111]", "Emax at 5 µM": "> 750"}
{"smiles": "Cc1cn2cc(-c3ccc(-c4ccc(C5CN(CC6(C(F)F)CC6)C5)nn4)c(O)c3)cc(F)c2n1", "note": "[Compound 112]", "Emax at 5 µM": "25 to 75"}
{"smiles": "Cc1cn2cc(-c3ccc(-c4ccc(C5CN(C6CCOC7(CCC7)C6)C5)nn4)c(O)c3)cc(F)c2n1", "note": "(stereo not drawn) [Compound 113]", "Emax at 5 µM": "25 to 75"}
{"smiles": "Cc1cn2cc(-c3ccc(-c4ccc(C5CN(Cc6conc6C)C5)nn4)c(O)c3)cc(F)c2n1", "note": "[Compound 114]", "Emax at 5 µM": "< 25"}
{"smiles": "Cc1cn2cc(-c3ccc(-c4ccc(C5CN(C(C)Cc6cnccn6)C5)nn4)c(O)c3)cc(F)c2n1", "note": "(stereo not drawn) [Compound 115]", "Emax at 5 µM": "25 to 75"}
{"smiles": "Cc1cn2cc(-c3ccc(-c4ccc(C5CN(Cc6cn(C(C)C)nn6)C5)nn4)c(O)c3)cc(F)c2n1", "note": "[Compound 116]", "Emax at 5 µM": "25 to 75"}
{"smiles": "Cc1cn2cc(-c3ccc(-c4ccc(C5CN(Cc6cnn(C)n6)C5)nn4)c(O)c3)cc(F)c2n1", "note": "[Compound 117]", "Emax at 5 µM": "25 to 75"}
{"smiles": "Cc1cn2cc(-c3ccc(-c4ccc(C5CN(C6COC(C)C6)C5)nn4)c(O)c3)cc(F)c2n1", "note": "(stereo not drawn) [Compound 119]", "Emax at 5 µM": "25 to 75"}
{"smiles": "Cc1cn2cc(-c3ccc(-c4ccc(C5CN(C(C)Cn6cncn6)C5)nn4)c(O)c3)cc(F)c2n1", "note": "(stereo not drawn) [Compound 120]", "Emax at 5 µM": "< 25"}
{"smiles": "Cc1cn2cc(-c3ccc(-c4ccc(C5CN(Cc6ccc[nH]c6=O)C5)nn4)c(O)c3)cc(F)c2n1", "note": "[Compound 121]", "Emax at 5 µM": "25 to 75"}
{"smiles": "Cc1cn2cc(-c3ccc(-c4ccc(C5CN(C(C)C6CCCCO6)C5)nn4)c(O)c3)cc(F)c2n1", "note": "(stereo not drawn) [Compound 122]", "Emax at 5 µM": "25 to 75"}
{"smiles": "CCn1cc(CN2CC(c3ccc(-c4ccc(-c5cc(F)c6nc(C)cn6c5)cc4O)nn3)C2)nn1", "note": "[Compound 123]", "Emax at 5 µM": "25 to 75"}
{"smiles": "Cc1cn2cc(-c3ccc(-c4ccc(C5CN(C6CC7(COC(C)C7)C6)C5)nn4)c(O)c3)cc(F)c2n1", "note": "(stereo not drawn) [Compound 124]", "Emax at 5 µM": "25 to 75"}
{"smiles": "CCn1cnc(CN2CC(c3ccc(-c4ccc(-c5cc(F)c6nc(C)cn6c5)cc4O)nn3)C2)c1", "note": "[Compound 125]", "Emax at 5 µM": "25 to 75"}
{"smiles": "COc1nn(C)cc1CN1CC(c2ccc(-c3ccc(-c4cc(F)c5nc(C)cn5c4)cc3O)nn2)C1", "note": "[Compound 126]", "Emax at 5 µM": "25 to 75"}
{"smiles": "COCn1nccc1CN1CC(c2ccc(-c3ccc(-c4cc(F)c5nc(C)cn5c4)cc3O)nn2)C1", "note": "[Compound 127]", "Emax at 5 µM": "< 25"}
{"smiles": "Cc1cn2cc(-c3ccc(-c4ccc(C5CN(C6CCc7cn[nH]c7C6)C5)nn4)c(O)c3)cc(F)c2n1", "note": "(stereo not drawn) [Compound 128]", "Emax at 5 µM": "25 to 75"}
{"smiles": "COc1cc(-c2ccc(-c3ccc(C4CN(Cc5ccccn5)C4)nn3)c(O)c2)cc2cn(C)nc12", "note": "[Compound 129]", "Emax at 5 µM": "< 25"}
{"smiles": "COc1cc(-c2ccc(-c3ccc(C4CN(Cc5cccnc5)C4)nn3)c(O)c2)cc2cn(C)nc12", "note": "[Compound 130]", "Emax at 5 µM": "25 to 75"}
{"smiles": "COc1cc(-c2ccc(-c3ccc(C4CN(CC5CC=CCC5)C4)nn3)c(O)c2)cc2cn(C)nc12", "note": "(stereo not drawn) [Compound 131]", "Emax at 5 µM": "> 750"}
{"smiles": "CCN1CCC(N2CC(c3ccc(-c4ccc(-c5cc(OC)c6nn(C)cc6c5)cc4O)nn3)C2)CC1", "note": "[Compound 132]", "Emax at 5 µM": "< 25"}
{"smiles": "COc1cc(-c2ccc(-c3ccc(C4CN(Cc5c(C)nn(C)c5C)C4)nn3)c(O)c2)cc2cn(C)nc12", "note": "[Compound 133]", "Emax at 5 µM": "< 25"}
{"smiles": "COc1cc(-c2ccc(-c3ccc(C4CN(C5CCN(C6CC6)CC5)C4)nn3)c(O)c2)cc2cn(C)nc12", "note": "[Compound 134]", "Emax at 5 µM": "< 25"}
{"smiles": "COc1cc(-c2ccc(-c3ccc(C4CN(C5CCC(C)C5)C4)nn3)c(O)c2)cc2cn(C)nc12", "note": "(stereo not drawn) [Compound 135]", "Emax at 5 µM": "25 to 75"}
{"smiles": "COc1cc(-c2ccc(-c3ccc(C4CN(CC(C)(C)C)C4)nn3)c(O)c2)cc2cn(C)nc12", "note": "[Compound 136]", "Emax at 5 µM": "> 750"}
{"smiles": "COc1cc(-c2ccc(-c3ccc(C4CN(C5CCCC5)C4)nn3)c(O)c2)cc2cn(C)nc12", "note": "[Compound 137]", "Emax at 5 µM": "> 750"}
{"smiles": "COc1cc(-c2ccc(-c3ccc(C4CN(C(C)c5ccccn5)C4)nn3)c(O)c2)cc2cn(C)nc12", "note": "(stereo not drawn) [Compound 138]", "Emax at 5 µM": "25 to 75"}
{"smiles": "COc1cc(-c2ccc(-c3ccc(C4CN(C5CCN(C6CC6)C5)C4)nn3)c(O)c2)cc2cn(C)nc12", "note": "(stereo not drawn) [Compound 139]", "Emax at 5 µM": "25 to 75"}
{"smiles": "COc1cc(-c2ccc(-c3ccc(C4CN(Cc5csnn5)C4)nn3)c(O)c2)cc2cn(C)nc12", "note": "[Compound 140]", "Emax at 5 µM": "< 25"}
{"smiles": "COc1cc(-c2ccc(-c3ccc(C4CN(Cc5cncs5)C4)nn3)c(O)c2)cc2cn(C)nc12", "note": "[Compound 141]", "Emax at 5 µM": "25 to 75"}
{"smiles": "COc1cc(-c2ccc(-c3ccc(C4CN(C5CCCSC5)C4)nn3)c(O)c2)cc2cn(C)nc12", "note": "(stereo not drawn) [Compound 142]", "Emax at 5 µM": "25 to 75"}
{"smiles": "COCC(C)N1CC(c2ccc(-c3ccc(-c4cc(OC)c5nn(C)cc5c4)cc3O)nn2)C1", "note": "(stereo not drawn) [Compound 143]", "Emax at 5 µM": "> 750"}
{"smiles": "COc1cc(-c2ccc(-c3ccc(C4CN(C5CCC(OC)CC5)C4)nn3)c(O)c2)cc2cn(C)nc12", "note": "(stereo not drawn) [Compound 144]", "Emax at 5 µM": "> 750"}
{"smiles": "COc1cc(-c2ccc(-c3ccc(C4CN(C5CCOC(C)C5)C4)nn3)c(O)c2)cc2cn(C)nc12", "note": "(stereo not drawn) [Compound 145]", "Emax at 5 µM": "25 to 75"}
{"smiles": "COc1cc(-c2ccc(-c3ccc(C4CN(C5CCOC(C)(C)C5)C4)nn3)c(O)c2)cc2cn(C)nc12", "note": "(stereo not drawn) [Compound 146]", "Emax at 5 µM": "25 to 75"}
{"smiles": "COc1cc(-c2ccc(-c3ccc(C4CN(CC5CCCOC5)C4)nn3)c(O)c2)cc2cn(C)nc12", "note": "(stereo not drawn) [Compound 147]", "Emax at 5 µM": "> 750"}
{"smiles": "COc1cc(-c2ccc(-c3ccc(C4CN(C(C)COC(C)C)C4)nn3)c(O)c2)cc2cn(C)nc12", "note": "(stereo not drawn) [Compound 148]", "Emax at 5 µM": "25 to 75"}
{"smiles": "COc1cc(-c2ccc(-c3ccc(C4CN(Cc5nc(C)ccc5O)C4)nn3)c(O)c2)cc2cn(C)nc12", "note": "[Compound 149]", "Emax at 5 µM": "25 to 75"}
{"smiles": "COc1cc(-c2ccc(-c3ccc(C4CN(Cc5cccnc5C)C4)nn3)c(O)c2)cc2cn(C)nc12", "note": "[Compound 150]", "Emax at 5 µM": "25 to 75"}
{"smiles": "COc1cc(-c2ccc(-c3ccc(C4CN(C(C)C5CCOC5)C4)nn3)c(O)c2)cc2cn(C)nc12", "note": "(stereo not drawn) [Compound 151]", "Emax at 5 µM": "> 750"}
{"smiles": "CCn1ccc(CN2CC(c3ccc(-c4ccc(-c5cc(OC)c6nn(C)cc6c5)cc4O)nn3)C2)c1", "note": "[Compound 152]", "Emax at 5 µM": "< 25"}
{"smiles": "COc1ccc(CN2CC(c3ccc(-c4ccc(-c5cc(OC)c6nn(C)cc6c5)cc4O)nn3)C2)cn1", "note": "[Compound 153]", "Emax at 5 µM": "< 25"}
{"smiles": "COc1cc(-c2ccc(-c3ccc(C4CN(C5CCCOCC5)C4)nn3)c(O)c2)cc2cn(C)nc12", "note": "(stereo not drawn) [Compound 155]", "Emax at 5 µM": "> 750"}
